Test [1] deals with Aorta. Briefly: Inhibition of noradrenaline-induced contractile response in rat aorta at 100 uM in presence of calcium. In kind it is functional, tissue-based.
In test [2] the test system is Aorta. Briefly: Inhibition of noradrenaline-induced contractile response in rat aorta in absence of calcium. In kind it is functional, tissue-based.

Each structure is given as a SMILES string. pIC50: −log10 of the molar value. The source made the active and inactive calls. The calls are words filed in the database; no cut-off is given here.

Take `CCO[C@@H]1CC(=O)O[C@H]2[C@H](O)[C@@H](c3ccccc3)O[C@H]21`: the outcome in test [1] was inactive.
For the molecule `O=C1C=C[C@@H]2O[C@H](c3ccccc3)[C@@H](O)[C@@H]2O1` [ALTHOLACTONE], the outcome in test [1] was inactive. In addition, the pIC50 in test [2] is 4.11.
The matching figures for `O=C1CC[C@@H]2O[C@H](c3ccccc3)[C@@H](O)[C@@H]2O1` [GONIOTHARVENSIN]: “inactive” and 4.10.

Source of the values: ChEMBL document CHEMBL1158879, “Preparation of 7-Alkoxylated Furanopyrones: Semisynthesis of ()-Etharvensin, a New Styryl-Lactone from Goniothalamus arvensis” (J Nat Prod, 1997).
